Reference: article PMC10477886, “Adamantaniline Derivatives Target ATP5B to Inhibit Translation of Hypoxia Inducible Factor‐1α” (Advanced Science, 2023)

Legend:
[1] = tested on: HIF‐1α transcriptional activity; test: dual‐luciferase assay (HRE‐Firefly Luciferase / renilla) of HIF‐1α transcriptional activity in HEK293T cells; assay type: cell-based, human; conditions: mean ± s.d. (n = 3); for inhibition at 10 µM: read-out: Inhibition rate [%] @ 10 µM; for IC50: HEK293T dual‐luciferase
Excerpt: To screen HIF‐1α inhibitors in a robust cell‐based assay, we optimized the dual‐luciferase assay with pLenti‐HIF‐1αP2A (P402A and P564A) instead of pLenti‐HIF‐1α in order to ensure the expression of HIF‐1α under normoxia condition. In the cell‐based assay, HEK293T cells were co‐transfected with pLenti‐HIF‐1αP2A, renilla, and hypoxia‐responsive element (HRE)‐Firefly Luciferase (Figure S1, Supporting Information). […] Three compounds were selected as the positive controls including two inhibitors (PX‐478 2HCl and BAY 87‐2243) and an activator (BAY 85‐3934) in the screening assay.
HEK293T cells were stably transfected with reporter plasmids pGMLV‐HRE‐LUC‐puromycin, pMSCV‐renilla‐hygromycin, and pLenti‐HIF‐1αP2A‐neomycin. Stable cell line constructed above, 293‐HIF‐1αP2A‐HRE‐Fluc‐Rluc, were seeded in 384‐well plates and cultured in DMEM with 10% FBS. The following day, the cells were pretreated with indicated chemical compounds from the National Compound Library of the Shanghai Institute of Materia Medica, Chinese Academy of Sciences by Mosquito HTS. The plate was then placed in an incubator chamber and incubated at 37 °C for 24 h. The ratio of firefly/renilla luciferase activity was determined by using the Envision (PerkinElmer).
Stable cell line 293‐HRE‐Fluc‐Rluc expressed luciferase and renilla or HEK293T cells transfected with indicated plasmids (pGL3‐HRE‐luciferase and pSV40‐renilla) were seeded in a 96‐well plate. The cells were co‐incubated with indicated compounds for 24 h and luciferase activities were detected in Microplate Reader (BioTek SYNEGRY H1) using the Dual Luciferase Reporter Assay System Kit (Promega, USA E1910) according to the manufacturer's instruction. The relative Luc activity was normalized by renilla activity. Three independent experiments were performed, and the calculated means and SDs are presented.

[2] = plasma concentration and pharmacokinetics after intraperitoneal administration in ICR mice; assay type: in vivo; conditions: intraperitoneal 50 mg kg^−1, two mice per compound, five times
Experimental: First, we roughly screened the concentrations in the plasma of seven selected compounds (1‐3n, 1‐3au, 1‐4a, 1‐4k, 1‐4l, 1‐4m, and 1‐4p) at indicated times after intraperitoneal administration in the Institute of Cancer Research (ICR) mice at a dose of 50 mg kg^−1 with two mice per compound, the blood at five different times was collected and the plasma concentration was analyzed finally. […] Besides, we examined the toxicity of HI‐104 in ICR mice by administering for 1 week at a dose of 100 mg kg^−1 by intraperitoneal injection.

[3] = Homo sapiens, HEK-293T, 10 µM, incubation 24 h, HEK293T

Compound | inhibition at 10 µM [1, 3] [%] | IC50 ([1]; Homo sapiens, HEK-293T) [nM] | also measured
O=C(Nc1ccc(C23CC4CC(CC(C4)C2)C3)cc1)c1cccc(O)c1 [1‐3n, N‐(4‐((3r,5r,7r)‐Adamantan‐1‐yl)Phenyl)−3‐Hydroxybenzamide] | 99.7 ± 0.1 | 26 ± 5 | concentration in the plasma (rough screen) [2]: barely detectable in the plasma
Nc1cccc(C(=O)Nc2ccc(C34CC5CC(CC(C5)C3)C4)cc2)c1 [1‐3t, N‐(4‐((3r,5r,7r)‐Adamantan‐1‐yl)Phenyl)−3‐Aminobenzamide] | 97.3 ± 0.4 | 230 ± 30 | –
Nc1ccc(C(=O)Nc2ccc(C34CC5CC(CC(C5)C3)C4)cc2)cc1 [1‐3u, N‐(4‐((3r,5r,7r)‐Adamantan‐1‐yl)Phenyl)−4‐Aminobenzamide] | 98.4 ± 0.1 | 110 ± 10 | –
CC(=O)Nc1ccccc1C(=O)Nc1ccc(C23CC4CC(CC(C4)C2)C3)cc1 [1‐3v, 2‐Acetamido‐N‐(4‐((3r,5r,7r)‐Adamantan‐1‐yl)Phenyl)Benzamide] | 18.4 ± 2.2 | – | –
CC(=O)Nc1cccc(C(=O)Nc2ccc(C34CC5CC(CC(C5)C3)C4)cc2)c1 [1‐3w, 3‐Acetamido‐N‐(4‐((3r,5r,7r)‐Adamantan‐1‐yl)Phenyl)Benzamide] | 77.4 ± 2.3 | 1900 ± 200 | –
CC(=O)Nc1ccc(C(=O)Nc2ccc(C34CC5CC(CC(C5)C3)C4)cc2)cc1 [1‐3x, 4‐Acetamido‐N‐(4‐((3r,5r,7r)‐Adamantan‐1‐yl)Phenyl)Benzamide] | 84.4 ± 1.9 | 950 ± 110 | –
O=C(CCCC[C@@H]1SC[C@@H]2NC(=O)N[C@@H]21)Nc1ccc(C(=O)Nc2ccc(C34CC5CC(CC(C5)C3)C4)cc2)cc1 [1‐3y, N‐(4‐((3r,5r,7r)‐Adamantan‐1‐yl)Phenyl)−4‐(5‐((3aS,4S,6aR)−2‐Oxohexahydro‐1H‐Thieno[3,4‐d]Imidazol‐4‐yl)Pentanamido)Benzamide] | – | – | Inhibition rate [%] @ 10 µM ([1]; 10 µM, incubation 24 h, HEK293T): 90.4 ± 0.8%; IC50 [1]: 280 ± 100 nM
O=C(Nc1ccc(C23CC4CC(CC(C4)C2)C3)cc1)c1cccnc1 [1‐4b, N‐(4‐((3r,5r,7r)‐Adamantan‐1‐yl)Phenyl)Nicotinamide] | 75.2 ± 1.9 | – | –
O=C(Nc1ccc(C23CC4CC(CC(C4)C2)C3)cc1)c1ccncc1 [1‐4c, N‐(4‐((3r,5r,7r)‐Adamantan‐1‐yl)Phenyl)Isonicotinamide] | 41.6 ± 2 | – | –
O=C(Nc1ccc(C23CC4CC(CC(C4)C2)C3)cc1)c1ccncn1 [1‐4d, N‐(4‐((3r,5r,7r)‐Adamantan‐1‐yl)Phenyl)Pyrimidine‐4‐Carboxamide] | 97.1 ± 0.4 | 280 ± 60 | –
Cc1cnc(C(=O)Nc2ccc(C34CC5CC(CC(C5)C3)C4)cc2)cn1 [1‐4e] | 36.3 ± 4.2 | – | –
COc1ccc(C(=O)Nc2ccc(C34CC5CC(CC(C5)C3)C4)cc2)nc1 [1‐4f] | 36.1 ± 5.6 | – | –
COc1ccnc(C(=O)Nc2ccc(C34CC5CC(CC(C5)C3)C4)cc2)c1 [1‐4g, N‐(4‐((3r,5r,7r)‐Adamantan‐1‐yl)Phenyl)−4‐Methoxypicolinamide] | 68.5 ± 0.4 | – | –
O=C(Nc1ccc(C23CC4CC(CC(C4)C2)C3)cc1)c1cc(Cl)ccn1 [1‐4h, N‐(4‐((3r,5r,7r)‐Adamantan‐1‐yl)Phenyl)−4‐Chloropicolinamide] | 91.5 ± 1.3 | 720 ± 20 | –
O=C(Nc1ccc(C23CC4CC(CC(C4)C2)C3)cc1)c1cncs1 [1‐4i, N‐(4‐((3r,5r,7r)‐Adamantan‐1‐yl)Phenyl)thiazole‐5‐Carboxamide] | 97.1 ± 0.4 | 520 ± 20 | –
O=C(Nc1ccc(C23CC4CC(CC(C4)C2)C3)cc1)c1cccs1 [1‐4j, N‐(4‐((3r,5r,7r)‐Adamantan‐1‐yl)Phenyl)Thiophene‐2‐Carboxamide] | 98.7 ± 0.6 | 390 ± 10 | –
Cn1cccc1C(=O)Nc1ccc(C23CC4CC(CC(C4)C2)C3)cc1 [1‐4n, N‐(4‐((3r,5r,7r)‐Adamantan‐1‐yl)Phenyl)−1‐Methyl‐1H‐Pyrrole‐2‐Carboxamide] | 57.5 ± 2 | – | –

Compound | inhibition at 10 µM [1, 3] [%] | IC50 ([1]; Homo sapiens, HEK-293T) [nM] | also measured
O=C(Nc1ccc(C23CC4CC(CC(C4)C2)C3)cc1)c1ccsc1 [1‐4o, N‐(4‐((3r,5r,7r)‐Adamantan‐1‐yl)Phenyl)Thiophene‐3‐Carboxamide] | 48.5 ± 8.7 | – | –
Nc1cccc(C(=O)Nc2ccc(C34CC5CC(CC(C5)C3)C4)cc2)n1 [1‐4q, N‐(4‐((3r,5r,7r)‐Adamantan‐1‐yl)Phenyl)−6‐Aminopicolinamide] | 98.6 ± 0.1 | 110 ± 20 | –
Nc1cccnc1C(=O)Nc1ccc(C23CC4CC(CC(C4)C2)C3)cc1 [1‐4r, N‐(4‐((3r,5r,7r)‐Adamantan‐1‐yl)Phenyl)−3‐Aminopicolinamide] | 97.5 ± 1 | 170 ± 20 | –
O=C(NC1C2CC3CC(C2)CC1C3)c1ccc(NC(=O)c2ccccn2)cc1 [2‐3a, N‐(4‐(((1R,3S,5r,7r)‐Adamantan‐2‐yl)Carbamoyl)Phenyl)Picolinamide] | 78.5 ± 4.5 | 1500 ± 200 | –
O=C(CC12CC3CC(CC(C3)C1)C2)Nc1ccc(NC(=O)c2ccccn2)cc1 [2‐3b, N‐(4‐(2‐((3r,5r,7r)‐Adamantan‐1‐yl)Acetamido)Phenyl)Picolinamide] | 68 ± 4.7 | 3500 ± 1000 | –
CC(NC(=O)c1ccc(NC(=O)c2ccccn2)cc1)C12CC3CC(CC(C3)C1)C2 (centres unmarked) [2‐3c, N‐(4‐((1‐((3r,5r,7r)‐Adamantan‐1‐yl)Ethyl)Carbamoyl)Phenyl)Picolinamide] | 79.9 ± 2 | 2100 ± 400 | –
Cc1cc(C23CC4CC(CC(C4)C2)C3)cc(C)c1NC(=O)c1cccc(Cl)c1 [3‐2a, N‐(4‐((3r,5r,7r)‐Adamantan‐1‐yl)−2,6‐Dimethylphenyl)−3‐Chlorobenzamide] | 34.8 ± 3.8 | – | –
CC(C)c1cc(C23CC4CC(CC(C4)C2)C3)cc(C(C)C)c1NC(=O)c1cccc(Cl)c1 [3‐2b, N‐(4‐((3r,5r,7r)‐Adamantan‐1‐yl)−2,6‐Diisopropylphenyl)−3‐Chlorobenzamide] | 27 ± 4.9 | – | –
O=C(Nc1ncc(C23CC4CC(CC(C4)C2)C3)cn1)c1cccc(Cl)c1 [3‐2c, N‐(5‐((3r,5r,7r)‐Adamantan‐1‐yl)Pyrimidin‐2‐yl)−3‐Chlorobenzamide] | 65.3 ± 4.3 | – | –
CC(=O)Nc1ccc(C(=O)Nc2ccc(C34CC5CC(C)(CC(C)(C5)C3)C4)cc2)cc1 [3‐2d] | 31.4 ± 4.5 | – | –
CC12CC3CC(C)(C1)CC(c1ccc(NC(=O)c4cccc(Cl)c4)cc1)(C3)C2 [3‐2e, 3‐Chloro‐N‐(4‐((1r,3R,5S,7r)−3,5‐Dimethyladamantan‐1‐yl)Phenyl)Benzamide] | 27.1 ± 1 | – | –
Cc1cc(C23CC4CC(C)(CC(C)(C4)C2)C3)cc(C)c1NC(=O)c1cccc(Cl)c1 [3‐2f, 3‐Chloro‐N‐(4‐((1r,3R,5S,7r)−3,5‐Dimethyladamantan‐1‐yl)−2,6‐Dimethylphenyl)Benzamide] | 65.7 ± 6.7 | – | –
CC12CC3CC(C)(C1)CC(c1cnc(NC(=O)c4cccc(Cl)c4)nc1)(C3)C2 [3‐2g, 3‐Chloro‐N‐(5‐((1r,3R,5S,7r)−3,5‐Dimethyladamantan‐1‐yl)Pyrimidin‐2‐yl)Benzamide] | 27.8 ± 8.8 | – | –
CCc1cc(C23CC4CC(C)(CC(C)(C4)C2)C3)cc(CC)c1NC(=O)c1cccc(Cl)c1 [3‐2h, 3‐Chloro‐N‐(4‐((1r,3R,5S,7r)−3,5‐Dimethyladamantan‐1‐yl)−2,6‐Diethylphenyl)Benzamide] | 30 ± 8.4 | – | –
CCc1cc(C23CC4CC(CC(C4)C2)C3)cc(CC)c1NC(=O)c1cccc(Cl)c1 [3‐2i, N‐(4‐((3r,5r,7r)‐Adamantan‐1‐yl)−2,6‐Diethylphenyl)−3‐Chlorobenzamide] | 35.1 ± 5.7 | – | –
COC(=O)c1ccc(O)c(NC(=O)COc2ccc(C34CC5CC(CC(C5)C3)C4)cc2)c1 [LW6, reference compound] | 70.9 ± 3.7 | 2600 ± 500 | –
